Test results as given in paper PMC8026785, “The pharmacokinetics of [^18F]UCB-H revisited in the healthy non-human primate brain” (EJNMMI Research, 2021).

Legend:
[1] = molecular target: T1, SV2A (Macaca fascicularis, UniProt Q4R4X3); assay: Displacement PET studies of [^18F]UCB-H; format: in vivo, cynomolgus monkeys (Macaca fascicularis)
T1 construct: The current study evaluates [^18F]UCB-H pharmacokinetics in healthy NHPs; from tissue; host or cells: brain of living healthy cynomolgus monkeys (in vivo PET)
Procedure: All four non-human primates (NHP) underwent a 2-h (2 h) test and retest PET scan; two NHP underwent an additional 4-h (4 h) retest PET scan. Three NHP underwent one 4-h (4 h) displacement PET scan. Arterial blood sampling was performed during test and retest scans with PET imaging spaced by at least 3 weeks between each scan. To this end, the femoral artery opposite to the saphenous vein used for radioligand injection was cannulated. For the 2-h (2 h) scans, we collected in total 28 blood samples of 1 mL: 16 samples during the first 5 min followed by […] every 5 min and […] every 10 min. For the 4 h scans, we collected an additional 6 samples every 20 min during the last two hours (34 samples in total). Larger samples (2 – 3 mL) were collected at 5, 15, 30, 60, 90, 120 min (2 h) and at 180, 240 min (4 h) for metabolite analysis. Displacement of [^18F]UCB-H was done by intravenous (IV) administration 90 min after [^18F]UCB-H injection of a bolus of 30 mg/kg LEV, or of 80 µg/kg (≈250 nmol/kg) or 5 mg/kg (≈15 µmol/kg) of cold [^19F]-UCB-H. Full experimental design of all NHP is outlined in Additional file 1: Table 1.
Solvents and LEV (C8H14N2O2; MM 170.21 g/mol) were obtained at Sigma-Aldrich® (France), and [^19F]-UCB-H (C16H12F4N2O; MM 324.28 g/mol) was synthesised as previously described. Injectable solutions of [^19F]-UCB-H for displacement studies were prepared with a mixture of Tetrahydrofuran (THF), Médialipide® and glucose at 2.5% as previously described. LEV was dissolved in a glucose solution of 2.5% to reach a concentration of 90 mg/mL.
PET image analysis was performed using PMOD software version 3.8 (PMOD Technologies Ltd., Zurich, Suisse). After individual co-registration of PET-MR images, a cynomolgus atlas published by Ballanger and coworkers was normalized to PET images to extract time activity curves in different brain regions. Volumes of interest (VOI) were cerebral white matter (16.7 cm^3), striatum (0.24 cm^3), thalamus (0.89 cm^3), cerebellum (3.83 cm^3), frontal—(2.50 cm^3), parietal—(5.35 cm^3), and temporal (8.22 cm^3) cortex, and whole brain (72.2 cm^3) as a composite region of all regions in the atlas. [^18F]UCB-H pharmacokinetics were evaluated by analyzing the time activity curves of the test- and retest scans using 1- and 2-tissue compartment models (unconstrained and constrained with global K1/k2 coupled fit across all regions, further referred to as 2TCM and 2TCM-c), and Logan graphical analysis with a fixed t* at 60 min [33] using the arterial plasma input function corrected for radio-metabolites to derive the volume of distribution in each region. Percentage standard error (%SE) was estimated from the theoretical parameter covariance matrix. Only reliable estimates (%SE less than 25%) were included in the current analyses. For the three drug studies, percent displacement of the total activity in the whole brain was estimated relative to an average baseline constructed from the two 4 h baseline studies. Briefly, Standardized Uptake Value (SUV) time activity curves (TACs) were calculated for the two baseline and the three displacement studies. Then, each curve was normalized to the SUV at t = 90 min, corresponding to the timeframe immediately before the administration of the drugs in the displacement studies. Baseline curves were averaged and the percent displacement of total activity was calculated as (baseline-displacement)/baseline at a given time post drug administration (see “Results”).

[2] = tested on: SV2A; parameters: method as in PMID 30084043, PMID 31728839; conditions: cited from earlier work
[3] = molecular target: SV2A; parameters: method as in PMID 31728839; conditions: human brain; read-out: in vitro Ki; cited from earlier work
[4] = molecular target: SV2A; parameters: method as in PMID 26848175; conditions: NHP; read-out: in vivo KD; cited from earlier work

T1 sequence (Q4R4X3 whole entry): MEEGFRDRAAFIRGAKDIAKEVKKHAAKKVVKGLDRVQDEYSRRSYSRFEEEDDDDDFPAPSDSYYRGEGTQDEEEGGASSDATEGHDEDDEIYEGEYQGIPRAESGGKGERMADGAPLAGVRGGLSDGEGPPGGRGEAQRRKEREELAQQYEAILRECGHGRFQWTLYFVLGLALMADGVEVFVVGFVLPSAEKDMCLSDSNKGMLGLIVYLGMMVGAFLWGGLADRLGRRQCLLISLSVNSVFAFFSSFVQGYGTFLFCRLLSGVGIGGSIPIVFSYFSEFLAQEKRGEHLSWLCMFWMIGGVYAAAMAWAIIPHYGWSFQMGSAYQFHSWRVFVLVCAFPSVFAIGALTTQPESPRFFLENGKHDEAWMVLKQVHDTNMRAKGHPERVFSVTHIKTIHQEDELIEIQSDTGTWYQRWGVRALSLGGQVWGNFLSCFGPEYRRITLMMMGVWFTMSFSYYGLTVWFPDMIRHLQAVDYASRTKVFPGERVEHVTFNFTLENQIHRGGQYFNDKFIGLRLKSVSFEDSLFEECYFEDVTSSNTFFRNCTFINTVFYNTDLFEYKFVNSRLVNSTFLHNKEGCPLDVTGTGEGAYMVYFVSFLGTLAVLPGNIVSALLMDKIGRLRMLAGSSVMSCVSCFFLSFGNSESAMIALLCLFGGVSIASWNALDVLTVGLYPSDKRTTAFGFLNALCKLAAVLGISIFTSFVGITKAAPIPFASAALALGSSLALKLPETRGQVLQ

## CC[C@@H](C(N)=O)N1CCCC1=O [LEV, levetiracetam, reference compound]
[1]; 30 mg/kg i.v. at 90 min, estimated 150 min (2.5 h) after injection
  displacement of [^18F]UCB-H total uptake: ~ 40%
[1]; cynomolgus monkey, iv, read-out: SV2A occupancy
  receptor occupancy at 30 mg/kg: 75 to 80%

## Cc1cnccc1CN1C[C@@H](c2cc(F)cc([18F])c2)CC1=O [[^18F]MNI-1126]
[2]
  affinity: high affinity

## Cc1cnccc1CN1CC(c2cc(F)cc([18F])c2)CC1=O (stereo not drawn) [[^18F]MNI-1128]
[2]
  affinity: low affinity

## O=C1CC(c2cc(F)c(F)c(F)c2)CN1Cc1ccncc1F (stereo not drawn) [[^19F]UCB-H]
[1]; 5 mg/kg i.v. at 90 min, estimated 35 min after injection of cold compound
  displacement of [^18F]UCB-H total uptake: 50%
[1]; 5 mg/kg, KD 30 nM
  SV2A occupancy expected: > 98%
[1]; after 5.0 mg/kg, based on brain uptake curves and fND ~6%
  maximum free concentration in brain: ~2.5 µM
[3]
  Ki: 9 nM
[4]
  Kd: 30 nM
